Source: ChEMBL document CHEMBL1129422, “Syntheses and structure-activity relationships of the second-generation antitumor taxoids: exceptional activity against drug-resistant cancer cells” (J Med Chem, 1996)
pIC50: −log10 of the molar value.

Experiments:
Mus musculus [1] = assay: Tumor growth delay of B16 melanoma implanted sc in B6D2F1 mice when 0.4 mL/mouse administered i.v. on day 7 at 7.7 mg/kg/day; format: functional; details: route intravenous
Mus musculus [2] = assay: Tumor growth delay of B16 melanoma implanted sc in B6D2F1 mice when 0.4 mL/mouse administered i.v. on day 5 at 12.4 mg/kg/day; format: functional; details: route intravenous
Mus musculus [3] = assay: Log cell kill = T-C(days)/3.32xTd (Tumor doubling time in days, 1.4 in this assay )on day 9 at 4.8 mg/kg/day in B16 melanoma implanted sc in B6D2F1 mice; format: ADME, organism-based; design: route subcutaneous; details: in vivo
Mus musculus [4] = assay: Tumor growth inhibition of B16 melanoma implanted sc in B6D2F1 mice when 0.4 mL/mouse administered i.v. on day 7 at 7.7 mg/kg/day; format: functional; details: route intravenous
HT-29 = assay: Concentration required to inhibit growth of human tumor HT-29 (colon) cell line.; format: functional, cell-based
Mus musculus [5] = assay: Log cell kill = T-C(days)/3.32xTd (Tumor doubling time in days, 1.4 in this assay )on day 7 at 7.7 mg/kg/day in B16 melanoma implanted sc in B6D2F1 mice; format: ADME, organism-based; design: route subcutaneous; details: in vivo
Mus musculus [6] = assay: Log cell kill = T-C(days)/3.32xTd (Tumor doubling time in days, 1.4 in this assay ) on day 5 at 12.4 mg/kg/day in B16 melanoma implanted sc in B6D2F1 mice; format: ADME, organism-based; design: route subcutaneous; details: in vivo
Mus musculus [7] = assay: Tumor growth inhibition of B16 melanoma implanted sc in B6D2F1 mice when 0.4 mL/mouse administered i.v. on day 5 at 12.4 mg/kg/day; format: functional; details: route intravenous
MCF7 [8] = assay: Concentration required to inhibit growth of human tumor MCF-7 (breast) cell line.; format: functional, cell-based
A121 = assay: Concentration required to inhibit growth of human tumor A121 (ovarian) cell line.; format: functional, cell-based
MCF7 [9] = assay: Concentration required to inhibit growth of human tumor […] (breast) cell line.; format: functional, cell-based
Mus musculus [10] = assay: Tumor growth inhibition of B16 melanoma implanted sc in B6D2F1 mice when 0.4 mL/mouse administered i.v. on day 9 at 4.8 mg/kg/day; format: functional; details: route intravenous
Mus musculus [11] = assay: Tumor growth delay of B16 melanoma implanted sc in B6D2F1 mice when 0.4 mL/mouse administered i.v. on day 9 at 4.8 mg/kg/day; format: functional; details: route intravenous
A549 = assay: Concentration required to inhibit growth of human tumor A549 (NSCL) cell line.; format: functional, cell-based
A2780 [12] = assay: Cytotoxicity against A2780-CP3, cisplatin-resistant Ovarian carcinoma cell line; format: functional, cell-based, Homo sapiens
A2780 [13] = assay: Cytotoxicity against A2780-C25, oxaliplatin-resistant Ovarian carcinoma cell line; format: functional, cell-based, Homo sapiens
A2780 [14] = assay: Cytotoxicity against A2780-DX5, Doxorubicin-resistant Ovarian carcinoma cell line; format: functional, cell-based, Homo sapiens
A2780 [15] = assay: Cytotoxicity against A2780-WT, human ovarian carcinoma cell line; format: functional, cell-based
Mus musculus [16] = assay: Tumor growth inhibition of B16 melanoma implanted sc in B6D2F1 mice when 0.4 mL/mouse administered i.v. on day 9 at 7.7 mg/kg/day; format: functional; details: route intravenous
Mus musculus [17] = assay: Tumor growth delay of B16 melanoma implanted sc in B6D2F1 mice when 0.4 mL/mouse administered i.v. on day 7 at 12.4 mg/kg/day; format: functional; details: route intravenous
Mus musculus [18] = assay: Log cell kill = T-C(days)/3.32xTd (Tumor doubling time in days, 1.4 in this assay )on day 9 at 7.7 mg/kg/day in B16 melanoma implanted sc in B6D2F1 mice; format: ADME, organism-based; design: route subcutaneous; details: in vivo
Mus musculus [19] = assay: Log cell kill = T-C(days)/3.32xTd (Tumor doubling time in days, 1.4 in this assay ) on day 5 at 20 mg/kg/day in B16 melanoma implanted sc in B6D2F1 mice; format: ADME, organism-based; design: route subcutaneous; details: in vivo
Mus musculus [20] = assay: Tumor growth delay of B16 melanoma implanted sc in B6D2F1 mice when 0.4 mL/mouse administered i.v. on day 9 at 7.7 mg/kg/day; format: functional; details: route intravenous
Mus musculus [21] = assay: Tumor growth inhibition of B16 melanoma implanted sc in B6D2F1 mice when 0.4 mL/mouse administered i.v. on day 7 at 12.4 mg/kg/day; format: functional; details: route intravenous
Mus musculus [22] = assay: Log cell kill = T-C(days)/3.32xTd (Tumor doubling time in days, 1.4 in this assay )on day 7 at 12.4 mg/kg/day in B16 melanoma implanted sc in B6D2F1 mice; format: ADME, organism-based; design: route subcutaneous; details: in vivo
Mus musculus [23] = assay: Tumor growth inhibition of B16 melanoma implanted sc in B6D2F1 mice when 0.4 mL/mouse administered i.v. on day 5 at 20 mg/kg/day; format: functional; details: route intravenous

Molecule | pIC50 (HT-29) | pIC50 (MCF7 [8]) | pIC50 (MCF7 [9]) | pIC50 (A549) | pIC50 (A121) | further results
CC(=O)O[C@@]12CO[C@@H]1C[C@H](O)[C@@]1(C)C(=O)[C@H](OC(=O)C3CC3)C3=C(C)[C@@H](OC(=O)[C@H](O)[C@H](C=C(C)C)NC(=O)OC(C)(C)C)C[C@@](O)([C@@H](OC(=O)c4ccccc4)[C@H]21)C3(C)C | 9.44 | 9.70 | 8.68 | 9.24 | 9.59 | –
CO[C@H]1C(=O)[C@@]2(C)[C@H]([C@H](OC(=O)c3ccccc3)[C@]3(O)C[C@H](OC(=O)[C@H](O)[C@H](CC(C)C)NC(=O)OC(C)(C)C)C(C)=C1C3(C)C)[C@]1(OC(C)=O)CO[C@@H]1C[C@@H]2O | 9.22 | 9.48 | 6.67 | 9.22 | 9.15 | –
C=CCNC(=O)O[C@H]1C(=O)[C@@]2(C)[C@H]([C@H](OC(=O)c3ccccc3)[C@]3(O)C[C@H](OC(=O)[C@H](O)[C@H](C=C(C)C)NC(=O)OC(C)(C)C)C(C)=C1C3(C)C)[C@]1(OC(C)=O)CO[C@@H]1C[C@@H]2O | 9.28 | 9.36 | 7.12 | 9.46 | 9.36 | –
CC(=O)O[C@@]12CO[C@@H]1C[C@H](O)[C@@]1(C)C(=O)[C@H](OC(=O)N3CCOCC3)C3=C(C)[C@@H](OC(=O)[C@H](O)[C@H](C=C(C)C)NC(=O)OC(C)(C)C)C[C@@](O)([C@@H](OC(=O)c4ccccc4)[C@H]21)C3(C)C | 9.74 | 10.05 | 7.90 | 9.66 | 10.05 | –
CC(=O)O[C@@]12CO[C@@H]1C[C@H](O)[C@@]1(C)C(=O)[C@H](O)C3=C(C)[C@@H](OC(=O)[C@H](O)[C@@H](NC(=O)OC(C)(C)C)c4ccccc4)C[C@@](O)([C@@H](OC(=O)c4ccccc4)[C@H]21)C3(C)C.O.O.O [DOCETAXEL] | – | – | – | – | – | T/C (Mus musculus [16]): 8%; T-C (Mus musculus [17]): 7.1 days; Log 10 cell kill (Mus musculus [18]): 0.9; pIC50 (A2780 [12]; Homo sapiens, A2780): 8.85; pIC50 (A2780 [13]; Homo sapiens, A2780): 9.00; pIC50 (A2780 [14]; Homo sapiens, A2780): 6.91; pIC50 (A2780 [15]; Homo sapiens, A2780): 8.92; Log 10 cell kill (Mus musculus [19]): 3.3; T-C (Mus musculus [20]): 4.3 days; T/C (Mus musculus [21]): 7%; Log 10 cell kill (Mus musculus [22]): 1.5; T/C (Mus musculus [23]): 0%
COc1cccc2c1C(=O)c1c(O)c3c(c(O)c1C2=O)C[C@@](O)(C(=O)CO)C[C@@H]3O[C@H]1C[C@H](N)[C@H](O)[C@H](C)O1 [DOXORUBICIN] | – | – | – | – | – | pIC50 (A2780 [12]; Homo sapiens, A2780): 7.25; pIC50 (A2780 [13]; Homo sapiens, A2780): 7.20; pIC50 (A2780 [14]; Homo sapiens, A2780): 6.45; pIC50 (A2780 [15]; Homo sapiens, A2780): 8.30
CISPLATIN | – | – | – | – | – | pIC50 (A2780 [12]; a2780): 5.05; pIC50 (A2780 [13]; a2780): 5.80; pIC50 (A2780 [14]; a2780): 6.55; pIC50 (A2780 [15]; a2780): 6.35

More lines, main results first:

pIC50 (HT-29) | pIC50 (MCF7 [8]) | pIC50 (MCF7 [9]) | pIC50 (A549) | Molecule | pIC50 (A121) | further results
9.51 | 9.74 | 8.66 | 9.54 | CCC(=O)O[C@H]1C(=O)[C@@]2(C)[C@H]([C@H](OC(=O)c3ccccc3)[C@]3(O)C[C@H](OC(=O)[C@H](O)[C@H](C=C(C)C)NC(=O)OC(C)(C)C)C(C)=C1C3(C)C)[C@]1(OC(C)=O)CO[C@@H]1C[C@@H]2O | 9.92 | T-C (Mus musculus [1]): 9.3 days; T-C (Mus musculus [2]): 10.9 days; Log 10 cell kill (Mus musculus [3]): 0.6; T/C (Mus musculus [4]): 0%; Log 10 cell kill (Mus musculus [5]): 2; Log 10 cell kill (Mus musculus [6]): 2.3; T/C (Mus musculus [7]): 0%; T/C (Mus musculus [10]): 34%; T-C (Mus musculus [11]): 3 days
9.30 | 9.89 | 8.31 | 9.22 | CC(=O)O[C@@]12CO[C@@H]1C[C@H](O)[C@@]1(C)C(=O)[C@H](OC(=O)N(C)C)C3=C(C)[C@@H](OC(=O)[C@H](O)[C@H](C=C(C)C)NC(=O)OC(C)(C)C)C[C@@](O)([C@@H](OC(=O)c4ccccc4)[C@H]21)C3(C)C | 9.52 | –
9.39 | 9.51 | 6.79 | 9.82 | CCNC(=O)O[C@H]1C(=O)[C@@]2(C)[C@H]([C@H](OC(=O)c3ccccc3)[C@]3(O)C[C@H](OC(=O)[C@H](O)[C@H](C=C(C)C)NC(=O)OC(C)(C)C)C(C)=C1C3(C)C)[C@]1(OC(C)=O)CO[C@@H]1C[C@@H]2O | 9.54 | –
9.20 | 9.26 | 7.92 | 9.57 | CC(=O)O[C@H]1C(=O)[C@@]2(C)[C@H]([C@H](OC(=O)c3ccccc3)[C@]3(O)C[C@H](OC(=O)[C@H](O)[C@H](C=C(C)C)NC(=O)OC(C)(C)C)C(C)=C1C3(C)C)[C@]1(OC(C)=O)CO[C@@H]1C[C@@H]2O | 9.34 | pIC50 (A2780 [12]; Homo sapiens, A2780): 9.44; pIC50 (A2780 [13]; Homo sapiens, A2780): 9.52; pIC50 (A2780 [14]; Homo sapiens, A2780): 8.24; pIC50 (A2780 [15]; Homo sapiens, A2780): 9.40
9.22 | 9.30 | 7.52 | 9.22 | CCCCC(=O)O[C@H]1C(=O)[C@@]2(C)[C@H]([C@H](OC(=O)c3ccccc3)[C@]3(O)C[C@H](OC(=O)[C@H](O)[C@H](C=C(C)C)NC(=O)OC(C)(C)C)C(C)=C1C3(C)C)[C@]1(OC(C)=O)CO[C@@H]1C[C@@H]2O | 9.22 | –
